From PubChem BioAssay AID210 (DTP/NCI, 2004) come the findings set out here.

The assay relates to CD2F1 mice, ip Colon 26 adenocarcinoma, median survival T/C. The assay is described as follows: NCI In Vivo Anticancer Drug Screen. Data for tumor model Colon 26 Adenocarcinoma (intraperitoneal) in CD2F1 (CDF1) mice. Conditions: endpoint: median survival time, higher = longer survival. How it is done:
The antitumor activity of compounds was measured in mice bearing transplantable tumors. Survival or tumor size were measured and the results are expressed as the measurement made in the treated group (T) divided by the measurement made in the vehicle treated control group (C). The tumor model used in this assay is Colon 26 Adenocarcinoma (intraperitoneal) in CD2F1 (CDF1) mice

Several values for one entry are separate records, joined by “and”; a condition that tells them apart may be missing. Equal entries are not always repeated. Toxic doses and inconclusive results are not listed.

Regarding `O=C1c2ccccc2C(=O)c2c(NCCNCCO)ccc(NCCNCCO)c21`, the T/C reads like this: (dose: 2.0 mg/kg/injection, schedule: Q01DX009 (ip), vehicle: saline) 191 % of control; (dose: 2.5 mg/kg/injection, schedule: Q01DX009 (ip), vehicle: saline) 200 % of control and 223 % of control; (dose: 2.62 mg/kg/injection, schedule: Q01DX009 (ip), vehicle: saline) 172 % of control; (dose: 3.89 mg/kg/injection, schedule: Q01DX009 (ip), vehicle: saline) 209 % of control; (dose: 3.89 mg/kg/injection, schedule: Q01DX009 (sc), vehicle: saline) 104 % of control; (dose: 4.0 mg/kg/injection, schedule: Q01DX009 (ip), vehicle: acid diluted with saline) 182 % of control. In addition, the T/C by setting is: (dose: 4.0 mg/kg/injection, schedule: Q01DX009 (ip), vehicle: saline) 226 % of control; (dose: 5.0 mg/kg/injection, schedule: Q01DX009 (ip), vehicle: saline) 193 % of control and 223 % of control; (dose: 5.25 mg/kg/injection, schedule: Q01DX009 (ip), vehicle: saline) 213 % of control; (dose: 6.22 mg/kg/injection, schedule: Q04DX003 (iv), vehicle: saline) 110 % of control; (dose: 6.48 mg/kg/injection, schedule: Q01DX009 (ip), vehicle: saline) 209 % of control; (dose: 6.48 mg/kg/injection, schedule: Q01DX009 (sc), vehicle: saline) 104 % of control. Further, the T/C is, setting by setting: (dose: 7.78 mg/kg/injection, schedule: Q01DX001 (iv), vehicle: saline) 104 % of control; (dose: 8.0 mg/kg/injection, schedule: Q01DX009 (ip), vehicle: acid diluted with saline) 219 % of control; (dose: 8.0 mg/kg/injection, schedule: Q01DX009 (ip), vehicle: saline) 236 % of control; (dose: 8.0 mg/kg/injection, schedule: Q04DX003 (ip), vehicle: Klucel (hydroxypropylcellulose) (HPC)) 168 % of control; (dose: 8.0 mg/kg/injection, schedule: Q04DX003 (ip), vehicle: water) 121 % of control and 209 % of control; (dose: 10.0 mg/kg/injection, schedule: Q01DX009 (ip), vehicle: saline) 212 % of control and 267 % of control. Further, the T/C (dose: 10.4 mg/kg/injection, schedule: Q04DX003 (iv), vehicle: saline) is 106 % of control; the T/C (dose: 10.5 mg/kg/injection, schedule: Q01DX009 (ip), vehicle: saline) was 294 % of control; the T/C (dose: 10.8 mg/kg/injection, schedule: Q01DX009 (ip), vehicle: saline) was 182 % of control; the T/C (dose: 10.8 mg/kg/injection, schedule: Q01DX009 (sc), vehicle: saline) is 105 % of control; the T/C (dose: 13.0 mg/kg/injection, schedule: Q01DX001 (iv), vehicle: saline) is 116 % of control; the T/C (dose: 16.0 mg/kg/injection, schedule: Q01DX009 (ip), vehicle: acid diluted with saline) was 219 % of control. In addition, the T/C is 305 % of control (dose: 16.0 mg/kg/injection, schedule: Q01DX009 (ip), vehicle: saline); 200 % of control and 170 % of control and 220 % of control (dose: 16.0 mg/kg/injection, schedule: Q04DX003 (ip), vehicle: Klucel (hydroxypropylcellulose) (HPC)); 188 % of control and 287 % of control (dose: 16.0 mg/kg/injection, schedule: Q04DX003 (ip), vehicle: water); 189 % of control (dose: 17.3 mg/kg/injection, schedule: Q04DX003 (ip), vehicle: saline); 101 % of control (dose: 17.3 mg/kg/injection, schedule: Q04DX003 (iv), vehicle: saline); 182 % of control (dose: 18.0 mg/kg/injection, schedule: Q01DX009 (ip), vehicle: saline). Moreover, the T/C runs as follows: (dose: 18.0 mg/kg/injection, schedule: Q01DX009 (sc), vehicle: saline) 99 % of control; (dose: 20.0 mg/kg/injection, schedule: Q01DX009 (ip), vehicle: saline) 193 % of control; (dose: 21.0 mg/kg/injection, schedule: Q01DX009 (ip), vehicle: saline) 268 % of control; (dose: 21.6 mg/kg/injection, schedule: Q01DX001 (iv), vehicle: saline) 100 % of control; (dose: 25.0 mg/kg/injection, schedule: Q07DX003 (iv), vehicle: Klucel (hydroxypropylcellulose) (HPC)) 104 % of control; (dose: 28.8 mg/kg/injection, schedule: Q04DX003 (ip), vehicle: saline) 150 % of control. Moreover, the T/C runs as follows: (dose: 28.8 mg/kg/injection, schedule: Q04DX003 (iv), vehicle: saline) 101 % of control; (dose: 30.0 mg/kg/injection, schedule: Q01DX009 (sc), vehicle: saline) 90 % of control; (dose: 32.0 mg/kg/injection, schedule: Q01DX009 (ip), vehicle: acid diluted with saline) 274 % of control; (dose: 32.0 mg/kg/injection, schedule: Q04DX003 (ip), vehicle: Klucel (hydroxypropylcellulose) (HPC)) 162 % of control and 182 % of control; (dose: 32.0 mg/kg/injection, schedule: Q04DX003 (ip), vehicle: water) 159 % of control and 287 % of control; (dose: 36.0 mg/kg/injection, schedule: Q01DX001 (iv), vehicle: saline) 109 % of control. The T/C by setting is: (dose: 42.0 mg/kg/injection, schedule: Q01DX009 (ip), vehicle: saline) 268 % of control; (dose: 48.0 mg/kg/injection, schedule: Q04DX003 (ip), vehicle: saline) 161 % of control; (dose: 48.0 mg/kg/injection, schedule: Q04DX003 (iv), vehicle: saline) 108 % of control; (dose: 50.0 mg/kg/injection, schedule: Q07DX003 (iv), vehicle: Klucel (hydroxypropylcellulose) (HPC)) 108 % of control; (dose: 60.0 mg/kg/injection, schedule: Q01DX001 (iv), vehicle: saline) 105 % of control; (dose: 64.0 mg/kg/injection, schedule: Q04DX003 (ip), vehicle: Klucel (hydroxypropylcellulose) (HPC)) 163 % of control and 173 % of control. Besides, the T/C by setting is: (dose: 64.0 mg/kg/injection, schedule: Q04DX003 (ip), vehicle: water) 177 % of control and 209 % of control; (dose: 80.0 mg/kg/injection, schedule: Q04DX003 (ip), vehicle: saline) 165 % of control.

For `CC[C@@]1(O)C[C@H](OC2CC(N(C)C)C(OC3CC(O)C(OC4CCC(=O)C(C)O4)C(C)O3)C(C)O2)c2c(cc3c(c2O)C(=O)c2c(O)cccc2C3=O)[C@H]1C(=O)OC` (stereo not given in full), the T/C by setting is: (dose: 6.2 mg/kg/injection, schedule: Q07DX003 (iv), vehicle: water) 105 % of control; (dose: 10.0 mg/kg/injection, schedule: Q07DX003 (iv), vehicle: water) 119 % of control; (dose: 16.0 mg/kg/injection, schedule: Q07DX003 (iv), vehicle: water) 117 % of control.

As for `CN(C)CCNc1ccc(O)c2c1C(=O)c1ccccc1C2=O`, the T/C is 121 % of control (dose: 10.0 mg/kg/injection, schedule: Q01DX009 (ip), vehicle: acid diluted with saline); 104 % of control and 115 % of control (dose: 20.0 mg/kg/injection, schedule: Q01DX009 (ip), vehicle: acid diluted with saline); 103 % of control (dose: 40.0 mg/kg/injection, schedule: Q01DX009 (ip), vehicle: acid diluted with saline); 115 % of control and 120 % of control (dose: 80.0 mg/kg/injection, schedule: Q01DX009 (ip), vehicle: acid diluted with saline).

With `ClC(Cl)=C(Cl)Cl`, the T/C (dose: 75.0 mg/kg/injection, schedule: Q04DX002 (ip), vehicle: other) was 101 % of control; the T/C (dose: 150.0 mg/kg/injection, schedule: Q04DX002 (ip), vehicle: other) was 93 % of control; the T/C (dose: 300.0 mg/kg/injection, schedule: Q04DX002 (ip), vehicle: other) was 89 % of control.
